Test results published in patent publication US11578068B2, “Oxadiazole derivatives as Rho-Kinase Inhibitors” (Chiesi Farmaceutici S.p.A., priority 2017, dated 2023).

Assays:
ROCK2 = ROCK2 (Homo sapiens, UniProt O75116); test: In vitro Rho kinase inhibitory activity assay (ADP-Glo), Rho kinase 2; assay type: biochemical; conditions: Ki by Cheng-Prusoff from IC50; 10 μM ATP, 25° C., Myelin Basic Protein substrate; range of activity
Description: (§1) The effectiveness of compounds of the invention to inhibit Rho kinase activity can be determined in a 10 μl assay containing 40 mM Tris pH7.5, 20 mM MgCl2 0.1 mg/ml BSA, 50 μM DTT and 2.5 μM peptide substrate (Myelin Basic Protein) using an ADP-Glo kit (Promega). Compounds were dissolved in DMSO such that the final concentration of DMSO was 1% in the assay. All reactions/incubations are performed at 25° C. Compound (2 ul) and either Rho kinase 1 or 2 (4 μl) were mixed and incubated for 30 mins. Reactions were initiated by addition of ATP (4 μl) such that the final concentration of ATP in the assay was 10 μM. After a 1 hour incubation 10 μl of ADP-Glo Reagent was added and after a further 45 minute incubation 20 ul of Kinase Detection Buffer was added and the mixture incubated for a further 30 minutes. The luminescent signal was measured on a luminometer. […] Compounds were tested in dose-response format and the inhibition of kinase activity was calculated at each concentration of compound. To determine the IC50 (concentration of compound required to inhibit 50% of the enzyme activity) data were fit to a plot of % inhibition vs Log 10 compound concentration using a sigmoidal fit with a variable slope and fixing the maximum to 100% and the minimum to 0%. To determine the Ki values the Cheng-Prusoff equation was utilized (Ki=IC50/(1+[S]/Km)

ROCK1 = ROCK1 (Homo sapiens, UniProt Q13464); test: In vitro Rho kinase inhibitory activity assay (ADP-Glo), Rho kinase 1; assay type: biochemical; conditions: Ki by Cheng-Prusoff from IC50; 10 μM ATP, 25° C., Myelin Basic Protein substrate; range of activity
Description: as §1

Chain of ROCK2 (O75116 whole entry): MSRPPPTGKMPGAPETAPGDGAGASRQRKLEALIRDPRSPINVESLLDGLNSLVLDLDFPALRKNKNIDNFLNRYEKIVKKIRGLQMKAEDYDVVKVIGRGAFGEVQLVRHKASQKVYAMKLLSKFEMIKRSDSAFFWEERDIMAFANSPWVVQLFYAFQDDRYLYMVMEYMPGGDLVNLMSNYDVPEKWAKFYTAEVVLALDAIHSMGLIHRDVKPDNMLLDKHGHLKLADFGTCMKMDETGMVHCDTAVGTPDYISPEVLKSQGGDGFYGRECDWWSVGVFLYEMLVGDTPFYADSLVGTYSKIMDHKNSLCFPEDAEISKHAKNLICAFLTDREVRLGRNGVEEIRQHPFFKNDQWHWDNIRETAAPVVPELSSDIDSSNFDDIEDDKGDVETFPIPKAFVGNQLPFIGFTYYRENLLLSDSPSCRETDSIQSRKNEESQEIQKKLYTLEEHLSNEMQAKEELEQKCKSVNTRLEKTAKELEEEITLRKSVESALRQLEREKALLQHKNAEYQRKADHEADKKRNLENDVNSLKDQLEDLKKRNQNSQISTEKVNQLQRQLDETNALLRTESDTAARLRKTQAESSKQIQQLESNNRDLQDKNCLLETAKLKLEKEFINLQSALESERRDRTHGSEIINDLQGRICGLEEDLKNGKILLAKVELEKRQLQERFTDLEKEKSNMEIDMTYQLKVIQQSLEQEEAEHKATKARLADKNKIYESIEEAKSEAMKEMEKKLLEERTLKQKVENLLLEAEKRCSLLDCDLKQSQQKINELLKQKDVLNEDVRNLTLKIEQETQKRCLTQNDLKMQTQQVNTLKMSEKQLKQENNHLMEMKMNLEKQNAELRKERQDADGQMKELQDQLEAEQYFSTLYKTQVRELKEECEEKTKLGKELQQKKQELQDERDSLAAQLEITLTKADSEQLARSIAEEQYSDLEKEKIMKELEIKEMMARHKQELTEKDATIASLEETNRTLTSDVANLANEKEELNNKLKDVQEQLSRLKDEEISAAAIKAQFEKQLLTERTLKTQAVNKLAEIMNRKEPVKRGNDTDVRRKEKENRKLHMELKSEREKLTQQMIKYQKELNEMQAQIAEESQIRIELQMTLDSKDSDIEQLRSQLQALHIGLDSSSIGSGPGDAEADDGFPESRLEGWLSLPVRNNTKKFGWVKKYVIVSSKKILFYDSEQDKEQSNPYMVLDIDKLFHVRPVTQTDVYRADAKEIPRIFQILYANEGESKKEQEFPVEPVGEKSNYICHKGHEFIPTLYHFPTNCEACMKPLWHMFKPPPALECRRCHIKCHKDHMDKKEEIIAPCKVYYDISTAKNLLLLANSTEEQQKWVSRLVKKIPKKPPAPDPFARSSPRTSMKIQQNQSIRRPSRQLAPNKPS
Chain of ROCK1 (Q13464 whole entry): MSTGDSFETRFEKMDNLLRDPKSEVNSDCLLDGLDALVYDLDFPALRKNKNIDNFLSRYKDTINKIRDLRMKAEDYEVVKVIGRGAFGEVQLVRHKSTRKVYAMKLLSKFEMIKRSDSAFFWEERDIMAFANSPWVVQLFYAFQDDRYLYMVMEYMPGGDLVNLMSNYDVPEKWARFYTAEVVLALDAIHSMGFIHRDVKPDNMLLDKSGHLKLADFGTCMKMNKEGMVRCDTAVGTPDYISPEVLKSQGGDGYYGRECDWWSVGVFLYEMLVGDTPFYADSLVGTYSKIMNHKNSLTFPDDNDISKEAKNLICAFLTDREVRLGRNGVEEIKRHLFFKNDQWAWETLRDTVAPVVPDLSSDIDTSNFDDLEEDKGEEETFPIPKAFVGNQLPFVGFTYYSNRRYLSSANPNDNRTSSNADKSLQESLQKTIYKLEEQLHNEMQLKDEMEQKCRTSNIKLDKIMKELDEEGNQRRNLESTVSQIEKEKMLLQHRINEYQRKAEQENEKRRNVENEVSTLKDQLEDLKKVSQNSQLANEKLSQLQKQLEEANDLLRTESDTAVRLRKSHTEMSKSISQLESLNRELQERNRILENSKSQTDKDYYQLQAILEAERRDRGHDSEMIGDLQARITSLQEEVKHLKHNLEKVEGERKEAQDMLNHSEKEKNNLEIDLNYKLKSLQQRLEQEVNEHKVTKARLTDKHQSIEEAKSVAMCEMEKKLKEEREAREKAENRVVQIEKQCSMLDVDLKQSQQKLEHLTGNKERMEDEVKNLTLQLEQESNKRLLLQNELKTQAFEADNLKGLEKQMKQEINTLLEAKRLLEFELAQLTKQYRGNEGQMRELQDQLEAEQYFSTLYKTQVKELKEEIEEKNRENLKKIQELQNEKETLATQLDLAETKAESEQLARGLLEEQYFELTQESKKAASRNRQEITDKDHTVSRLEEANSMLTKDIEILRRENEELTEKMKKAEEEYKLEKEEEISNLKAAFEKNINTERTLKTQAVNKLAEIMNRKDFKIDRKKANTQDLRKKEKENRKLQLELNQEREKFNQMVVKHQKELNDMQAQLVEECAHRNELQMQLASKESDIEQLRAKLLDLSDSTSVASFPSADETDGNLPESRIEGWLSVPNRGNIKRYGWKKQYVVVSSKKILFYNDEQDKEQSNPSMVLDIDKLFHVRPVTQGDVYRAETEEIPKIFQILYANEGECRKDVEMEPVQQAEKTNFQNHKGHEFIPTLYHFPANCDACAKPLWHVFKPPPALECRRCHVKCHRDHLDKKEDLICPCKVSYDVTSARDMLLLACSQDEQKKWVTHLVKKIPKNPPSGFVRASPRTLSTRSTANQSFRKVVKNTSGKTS

Row | Ki (ROCK2) | Ki (ROCK1) | Structure (SMILES)
1 | 5 to 50 nM | 5 to 50 nM | Cc1noc([C@@H](N)Cc2ccc(Oc3ccnc4[nH]cc(C)c34)c(F)c2)n1 [Example 3, (S)-2-(3-fluoro-4-((3-methyl-1H-pyrrolo[2,3-b]pyridin-4-yl)oxy)phenyl)-1-(3-methyl-1,2,4-oxadiazol-5-yl)ethanamine]
2 | < 5 nM | < 5 nM | Cc1c[nH]c2nccc(Oc3ccc(CC(CN)c4nc(CCc5ccccc5)no4)cc3F)c12 (stereo not drawn) [Example 8, 3-(3-fluoro-4-((3-methyl-1H-pyrrolo[2,3-b]pyridin-4-yl)oxy)phenyl)-2-(3-phenethyl-1,2,4-oxadiazol-5-yl)propan-1-amine]
3 | > 50 nM | > 50 nM | N[C@@H](Cc1ccc(Oc2ccnc3[nH]ccc23)cc1)c1nc(-c2ccccc2)no1 [Example 7, (S)-2-(4-((1H-pyrrolo[2,3-b]pyridin-4-yl)oxy)phenyl)-1-(3-phenyl-1,2,4-oxadiazol-5-yl)ethanamine]
4 | < 5 nM | < 5 nM | Cc1c[nH]c2nccc(Oc3ccc(C[C@H](N)c4nc(CCc5ccccc5)no4)cc3F)c12 [Example 4, (S)-2-(3-fluoro-4-((3-methyl-1H-pyrrolo[2,3-b]pyridin-4-yl)oxy)phenyl)-1-(3-phenethyl-1,2,4-oxadiazol-5-yl)ethanamine]
5 | 5 to 50 nM | 5 to 50 nM | COCCc1noc([C@@H](N)Cc2ccc(Oc3ccnc4[nH]cc(C)c34)c(F)c2)n1 [Example 2, (S)-2-(3-fluoro-4-((3-methyl-1H-pyrrolo[2,3-b]pyridin-4-yl)oxy)phenyl)-1-(3-(2-methoxyethyl)-1,2,4-oxadiazol-5-yl)ethanamine]
6 | 5 to 50 nM | 5 to 50 nM | Cc1c[nH]c2nccc(Oc3ccc(C[C@H](N)c4nc(-c5cccnc5)no4)cc3F)c12 [Example 5, (S)-2-(3-fluoro-4-((3-methyl-1H-pyrrolo[2,3-b]pyridin-4-yl)oxy)phenyl)-1-(3-(pyridin-3-yl)-1,2,4-oxadiazol-5-yl)ethanamine]
7 | < 5 nM | < 5 nM | Cc1c[nH]c2nccc(Oc3ccc(C[C@H](N)c4nnc(Cc5ccccc5)o4)cc3F)c12 [Example 9, (S)-1-(5-benzyl-1,3,4-oxadiazol-2-yl)-2-(3-fluoro-4-((3-methyl-1H-pyrrolo [2,3-b]pyridin-4-yl)oxy)phenyl)ethanamine]
8 | 5 to 50 nM | 5 to 50 nM | Cc1c[nH]c2nccc(Oc3ccc(C[C@H](N)c4nc(CCCN(C)C)no4)cc3F)c12 [Example 6, (S)-3-(5-(1-amino-2-(3-fluoro-4-((3-methyl-1H-pyrrolo[2,3-b]pyridin-4-yl)oxy)phenyl)ethyl)-1,2,4-oxadiazol-3-yl)-N,N-dimethylpropan-1-amine]
9 | 5 to 50 nM | 5 to 50 nM | Cc1c[nH]c2nccc(Oc3ccc(C[C@H](N)c4nc(-c5ccccc5)no4)cc3F)c12 [Example 1, (S)-2-(3-fluoro-4((3-methyl-1H-pyrrolo[2,3-b]pyridin-4-yl)oxy)phenyl)-1-(3-phenyl-1,2,4-oxadiazol-5-yl)ethanamine]
